Experimental data taken from PubChem BioAssay AID1996.
Converted amounts (≈) assume the structure as drawn.

Conditions: buffer; pH 7.4; 200.0 µM

SMILES	solubility kinetic [µg/mL]
O=C(COC(=O)/C=C/c1ccc(F)cc1)NCc1cccs1	8.7 (≈ 27.2 µM)
O=C(OCC(=O)c1ccc[nH]1)c1ccc(Br)cc1	7.2 (≈ 23.4 µM)
CN1C(=O)/C(=C\c2cccc(OCc3ccccc3)c2)SC1=S	< 0.7
N#Cc1ccc(NC(=O)CN2C(=O)NC3(CCCC3)C2=O)cc1Cl	46.1 (≈ 133 µM)
Cc1ccccc1CSc1ncnc2ccccc12	0.3 (≈ 1.13 µM)
Cn1c(=O)oc2cc(S(=O)(=O)Nc3ccc(F)cc3)ccc21	7.2 (≈ 22.3 µM)
Br.Fc1cc(Cl)ccc1NC1=NCCCCC1	> 48.2
O=c1oc(Nc2ccccc2Cl)nc2ccccc12	7.9 (≈ 29 µM)
O=C(NC(=S)NC1CCCC1)c1ccccc1	16.9 (≈ 68 µM)
CNc1snc(C)c1C(=O)OCC(=O)N(C)Cc1ccccc1	49.8 (≈ 149 µM)
COc1cccc(N2CCN(C(=S)Nc3ccccc3)CC2)c1	2.9 (≈ 8.86 µM)
CC1=C(C(=O)OC2CCCCC2)C(c2ccccc2)NC(=O)N1 (configuration not stated)	11.3 (≈ 35.9 µM)
Cc1cc(CNC(=O)c2ccc(C)c([N+](=O)[O-])c2)c2ccccc2n1	20.1 (≈ 59.9 µM)
CCOC(=O)N1CCC(NC(=O)c2ccccc2C(=O)O)CC1	> 48.1
S=C(NC1CC1)N1CCc2ccccc2C1	> 34.9
NC(=O)c1ccc(NC(=O)COC(=O)CCN2C(=O)c3ccccc3C2=O)cc1	> 59.3
Cc1noc(C)c1CN1C(=O)c2ccccc2C1=O	30.1 (≈ 117 µM)
CC(=O)Nc1ccccc1OCC(=O)NC1CCCCC1C (configuration not stated)	> 45.7
O=C(/C(=C/c1cccnc1)n1ccnc1)c1ccc(Cl)cc1Cl	> 51.6
CSc1ccc(C(=S)N2CCCCCC2)cc1	12.9 (≈ 48.6 µM)
CN1CCCN(C(=O)c2ccc(Br)s2)CC1	> 45.5

SMILES	solubility kinetic [µg/mL]
Cc1cccc(NC(=O)CN(C)C(=O)c2ccc(N3CCCCCC3)c([N+](=O)[O-])c2)c1C	11.4 (≈ 26 µM)
COCCn1c(SCC(=O)NC2CCCC2)nc2cccnc21	> 50.2
CCOCCn1c(CC)nc2ccccc21	> 32.7
N#Cc1ccc(COC(=O)c2cccnc2Cl)cc1	26.9 (≈ 98.6 µM)
O=C(NCc1ccc2c(c1)OCO2)c1ccccc1Cl	40.8 (≈ 141 µM)
CC1CN(C(=O)COC(=O)c2ccc(Cl)c(N)c2)CC(C)O1 (configuration not stated)	> 49
O=C(OCC(=O)N1CCCC1)c1ccc(O)cc1	> 37.4
CN=c1scc(-c2ccccc2F)n1/N=C/c1ccc(O)c(O)c1O	> 53.9
Cn1ncc(Cl)c1C(=O)NC1CCCC1	> 34.2
Cc1ccc(NC(=S)NC2CCSc3ccccc32)cc1 (configuration not stated)	2.7 (≈ 8.59 µM)
Cc1cc(SCC(=O)NC2CCCC2)nc2ccccc12	8.8 (≈ 29.3 µM)
CCOc1ccccc1NC(=O)Cc1cccs1	33.6 (≈ 129 µM)
Cn1c(N)c(C(=O)COC(=O)c2ccccc2C(F)(F)F)c(=O)n(C)c1=O	6.3 (≈ 16.4 µM)
O=C(Nc1cccnc1)Nc1cccc(F)c1	> 34.7
COc1ccccc1/C=C/C(=O)OCC(=O)Nc1ccc2c(c1)OCO2	3.3 (≈ 9.29 µM)
Cc1ccccc1-n1c(-c2ccoc2)nc2ccccc2c1=O	> 45.3
CCOc1ccc2oc(C(=O)NC(C)(C)CC)c(C)c2c1	11.5 (≈ 39.7 µM)
N#Cc1c(CSCC(=O)O)cc(=O)n2c1[nH]c1ccccc12	46.9 (≈ 150 µM)
O=C(NC1CC2CCCC(C1)N2C(=O)Nc1cccc(F)c1)C1CC1 (configuration not stated)	16.3 (≈ 47.2 µM)
O=C(O)c1cccc(OCCN2CCCC2=O)c1	34.6 (≈ 139 µM)
Cc1cc(C)c2nc(SCC(=O)Nc3cc(C)on3)c(C#N)cc2c1	< 0.2

SMILES	solubility kinetic [µg/mL]
COc1ccccc1-c1nc(COc2ccc(Cl)cc2Cl)no1	< 0.4
CCCN1CNC(=S)N(c2cccc(C)c2)C1	37.2 (≈ 149 µM)
COc1ccc(CNC(=O)COC(=O)[C@H](Cc2ccccc2)NC(=O)c2cccs2)cc1	51 (≈ 113 µM)
CCN(CC(=O)NCc1cccs1)C(=O)Cc1ccc(C)c(C)c1	> 51.7
O=C(NC1CCCC1)c1cc2cc(Br)ccc2o1	6.1 (≈ 19.8 µM)
CCC1CCC(N2CCN(c3ccc([N+](=O)[O-])cc3)CC2)CC1 (configuration not stated)	8.9 (≈ 28 µM)
Cc1cc(C)cc(C(=O)NCc2ccc3c(c2)OCO3)c1	5.8 (≈ 20.5 µM)
Cc1cc(Br)cc(Cl)c1OC(=O)c1cnccn1	47.4 (≈ 145 µM)
COc1ccc(C2SCC(=O)N2c2ccc(F)cc2)cc1 (configuration not stated)	35.2 (≈ 116 µM)
CCCn1c(N)cc(=O)n(CCC)c1=O	> 31.7
CCOC(=O)c1cc(NCc2cccs2)ccc1N1CCOCC1	50.4 (≈ 145 µM)
CN(C)c1c(N)c(=O)oc2ccccc12	27.3 (≈ 134 µM)
CCC(Oc1ccccc1)C(=O)NC1CCCCCC1 (configuration not stated)	28.3 (≈ 103 µM)
Cc1ccc(O)c(Nc2c3ccccc3nc3ccccc23)c1	1.5 (≈ 4.99 µM)
CCCCc1nnc(NC(=O)C(=O)OCC)s1	> 38.6
NC(=O)Cn1cnc2nc3n(c2c1=O)CCC3	> 35
COc1ccc(NC(=S)Nc2cnc3ccccc3c2)c(OC)c1	45.1 (≈ 133 µM)
CCOC(=O)c1cc2c(ccn2C)n1CC(=O)N(C)C	> 41.6
COc1ccc(Nc2ccc(C(F)(F)F)cc2[N+](=O)[O-])cn1	1.8 (≈ 5.75 µM)
O=C(Nc1cccc2ncccc12)c1ccccc1Cl	18.5 (≈ 65.4 µM)
